Experimental findings from EP0543555A1, “Phosphorylated flavanoids in the treatment of viral diseases” (MERRELL DOW PHARMACEUTICALS INC., priority 1991, dated 1993) are described below.

SMILES strings stand for the structures. Like-named read-outs stand apart in the source and are kept apart here.

The subject of assay [1] is HIV-1. The experiment in a line: microbe, parasite or virus in culture.
Experimental: (§1) JM cells were infected with HIV-1 for 2 hours at room temperature. The cells were then washed and distributed into duplicate wells containing different concentrations of the test compound and incubated at 37°C. On days 3 and 4 the cells were observed and the syncytia counted and on day 4 the supernatant fluid was also harvested for detection of p24 viral core antigen using the Abbott EIA.
The subject of assay [2] is HIV-1. The conditions noted are these: for p24: day 4 supernatant.
Experimental: as §1
The mark [3] stands for this setting: Human immunodeficiency virus 1, 72 h, read-out: Mean Syncytial Counts Day 3 %.
Where [4] appears, read: Human immunodeficiency virus 1, 96 h, read-out: Mean Syncytial Counts Day 4 %.

As for `Nc1ccn([C@H]2CC[C@@H](CO)O2)c(=O)n1` [ddC, reference compound], in the assay with HIV-1 [1] (setting [3]), the activity at 0.1 µM came to 37%, the activity at 0.3 µM worked out at 0%, the activity at 1 µM was 0% and the activity at 3 µM stood at 0%. The activity at 10 µM in the assay on HIV-1 [1] (setting [3]) worked out at 0%. In addition, in the assay on HIV-1 [1] (setting [4]), the activity at 0.1 µM was determined as 37%, the activity at 0.3 µM came out at 7%, the activity at 1 µM was 0% and the activity at 3 µM is 0%. Moreover, the activity at 10 µM with HIV-1 [1] (setting [4]) was determined as 0%. In addition, in the assay with HIV-1 [2] (Conc 0.1 µM), the “Mean Syncytial Counts Day 3” value is on record as 21 and the “Mean Syncytial Counts Day 4” value worked out at 31. Further, in the assay with HIV-1 [2] (Conc 0.3 µM), the “Mean Syncytial Counts Day 3” value is recorded as 0, the “Mean Syncytial Counts Day 4” value came out at 6 and the “p24” value came to 341 pg/mL. Also, in the assay with HIV-1 [2] (Conc 1 µM), the “Mean Syncytial Counts Day 3” value is listed as 0, the “Mean Syncytial Counts Day 4” value is on record as 0 and the “p24” value turned out to be 199 pg/mL. Moreover, in the assay on HIV-1 [2] (Conc 3 µM), the “Mean Syncytial Counts Day 3” value is reported as 0, the “Mean Syncytial Counts Day 4” value is on record as 0 and the “p24” value worked out at 98 pg/mL. Also, in the assay on HIV-1 [2] (Conc 10 µM), the “Mean Syncytial Counts Day 3” value came out at 0, the “Mean Syncytial Counts Day 4” value is recorded as 0 and the “p24” value worked out at 132 pg/mL.
